Experimental findings from patent US7041687B2, “Indazole compounds useful as protein kinase inhibitors” (Vertex Pharmaceuticals Incorporated, priority 2002, dated 2006) are described below.

Where only a bound is given, the exact number is not on record here.

For the first experiment, the target named is AKT-3 (Homo sapiens, UniProt Q9Y243). The experiment in a line: AKT-3 inhibition assay (standard coupled enzyme assay). The experiment is classed as biochemical. The note with it: 170 μM ATP, 200 μM peptide, 45 nM AKT, 30° C.
Sequence of AKT-3 (Q9Y243 whole entry): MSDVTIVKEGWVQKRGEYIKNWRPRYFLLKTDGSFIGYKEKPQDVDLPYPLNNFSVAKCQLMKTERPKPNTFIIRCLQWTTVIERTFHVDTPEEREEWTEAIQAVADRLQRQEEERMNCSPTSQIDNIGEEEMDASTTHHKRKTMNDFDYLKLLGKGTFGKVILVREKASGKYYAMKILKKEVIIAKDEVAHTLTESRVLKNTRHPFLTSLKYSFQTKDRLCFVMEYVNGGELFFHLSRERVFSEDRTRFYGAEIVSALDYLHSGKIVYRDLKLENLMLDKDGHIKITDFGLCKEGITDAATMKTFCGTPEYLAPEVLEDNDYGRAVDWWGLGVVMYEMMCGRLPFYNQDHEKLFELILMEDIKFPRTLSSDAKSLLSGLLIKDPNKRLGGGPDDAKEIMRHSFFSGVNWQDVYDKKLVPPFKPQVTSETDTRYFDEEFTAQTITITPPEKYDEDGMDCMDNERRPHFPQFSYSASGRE
Experimental: Assays were carried out in a mixture of 100 mM HEPES 7.5, 10 mM MgCl2, 25 mM NaCl, 1 mM DTT and 3% DMSO. Final substrate concentrations in the assay were 170 μM ATP (Sigma Chemicals) and 200 μM peptide (RPRAATF, American Peptide, Sunnyvale, Calif.). Assays were carried out at 30° C. and 45 nM AKT. Final concentrations of the components of the coupled enzyme system were 2.5 mM phosphoenolpyruvate, 300 μM NADH, 30 μg/ML pyruvate kinase and 10 μg/ml lactate dehydrogenase.
An assay stock buffer solution was prepared containing all of the reagents listed above, with the exception of AKT, DTT, and the test compound of interest. 55 μl of the stock solution was placed in a 96 well plate followed by addition of 2 μl of 1 mM DMSO stock containing the test compound (final compound concentration 30 μM). The plate was pre-incubated for about 10 minutes at 30° C. and the reaction initiated by addition of 10 μl of enzyme (final concentration 45 nM) and 1 mM DTF. Rates of reaction were obtained using a Molecular Devices SpectraMax Plus plate reader over a 15 minute read time at 30° C.
`NCC(=O)NC(C(=O)Nc1ccc2[nH]ncc2c1)c1cccc(Cl)c1` (centres unmarked) [Compound I-74, 2-(2-Amino-acetylamino)-2-(3-chloro-phenyl)-N-(1H-indazol-5-yl)-acetamide]: the Ki – broadly, the equilibrium dissociation constant of an inhibitor or competing ligand from its target – is less than 1 µM.

With `NCCC(C(=O)Nc1ccc2[nH]nc(NC(=O)c3cccc(CN4CCOCC4)c3)c2c1)c1ccc(Cl)c(Cl)c1` (centres unmarked) [Compound I-215], the Ki is less than 1 µM. `CC(=O)c1n[nH]c2ccc(NC(=O)C(CN)c3ccc(Cl)c(Cl)c3)cc12` (centres unmarked) [Compound I-255]: the inhibitory constant (Ki) was 1 to 10 µM.

In turn, `NCCC(C(=O)Nc1ccc2[nH]ncc2c1)c1cccc(O)c1` (centres unmarked) [Compound I-115] showed a Ki of less than 1 µM. Compound `NCC(C(=O)Nc1cc(-c2ccccc2)c2[nH]ncc2c1)c1ccc(Cl)c(Cl)c1` (centres unmarked) [Compound I-146] returned a Ki of 10 to 20 µM.

`NCCC(C(=O)Nc1ccc2[nH]nc(NC(=O)c3cccc(Cn4ccnc4)c3)c2c1)c1ccc(Cl)c(Cl)c1` (centres unmarked) [Compound I-217]: the inhibitory constant (Ki) was less than 1 µM. On the same count and under the same terms, the result for `O=C(Nc1ccc2[nH]ncc2c1)C(O)c1ccc(Br)cc1` (centres unmarked) [Compound I-37] reads 10 to 20 µM. `NCCC(C(=O)Nc1ccc2[nH]nc(NC(=O)c3cccc(CN4CCNCC4)c3)c2c1)c1ccc(Cl)c(Cl)c1` (centres unmarked) [Compound I-218] showed a Ki of less than 1 µM. Turning to `NCCC(C(=O)Nc1ccc2[nH]nc(-c3cccc(OC(F)(F)F)c3)c2c1)c1ccc(Cl)c(Cl)c1` (centres unmarked) [Compound I-256], the Ki is less than 1 µM.

Regarding `CCc1n[nH]c2ccc(NC(=O)[C@H](O)c3cccc(Cl)c3)cc12` [Compound I-79], the Ki is 10 to 20 µM. For `NC(C(=O)Nc1ccc2[nH]ncc2c1)c1cccc(C(F)(F)F)c1` (centres unmarked) [Compound I-53], the Ki is 1 to 10 µM. Consider `Nc1n[nH]c2ccc(NC(=O)Cc3cccc(Cl)c3)cc12` [Compound I-82], for which the Ki was in the range of 10 to 20 µM. As to `NCCC(C(=O)Nc1ccc2[nH]nc(NC(=O)Cc3ccccc3)c2c1)c1ccc(Cl)c(Cl)c1` (centres unmarked) [Compound I-192], the inhibition constant (Ki) fell in the range of 1 to 10 µM. In turn, `N[C@H](C(=O)Nc1ccc2[nH]ncc2c1)c1ccccc1` [Compound I-49] yielded an inhibition constant Ki of 1 to 10 µM. `NCC(C(=O)Nc1ccc2[nH]ncc2c1)c1cccc(Cl)c1` (centres unmarked) [Compound I-157] yielded a Ki of 1 to 10 µM. With `CCNCCNC(C(=O)Nc1ccc2[nH]ncc2c1)c1cccc(Cl)c1` (centres unmarked) [Compound I-63], the Ki was 1 to 10 µM. For `NCCC(C(=O)Nc1ccc2[nH]nc(-c3cccc(-c4ccccc4)c3)c2c1)c1ccc(Cl)c(Cl)c1` (centres unmarked) [Compound I-223], the inhibition constant Ki was less than 1 µM. The same measure, in the same setting: next, `CCCNCCCNC(C(=O)Nc1ccc2[nH]ncc2c1)c1cccc(Cl)c1` (centres unmarked) [Compound I-68]: 1 to 10 µM; `N[C@@H](Cc1ccc(Cl)c(Cl)c1)C(=O)Nc1ccc2[nH]ncc2c1` [Compound I-95]: 10 to 20 µM; `Nc1n[nH]c2ccc(NC(=O)Cc3ccc(Cl)c(Cl)c3)cc12` [Compound I-83]: 1 to 10 µM. On the same count and under the same terms, next, `CC(=O)c1cccc(C(=O)Nc2n[nH]c3ccc(NC(=O)C(CCN)c4ccc(Cl)c(Cl)c4)cc23)c1` (centres unmarked) [Compound I-220]: less than 1 µM; `COc1ccc(C(NCCN)C(=O)Nc2ccc3[nH]ncc3c2)cc1Cl` (centres unmarked) [Compound I-71]: 1 to 10 µM. The same measure, in the same setting: next, `CNC(=O)NCCC(C(=O)Nc1ccc2[nH]ncc2c1)c1ccc(Cl)c(Cl)c1` (centres unmarked) [Compound I-152]: 1 to 10 µM. As to `NCCNC(C(=O)Nc1ccc2[nH]ncc2c1)c1ccc(Cl)cc1` (centres unmarked) [Compound I-70], the Ki is less than 1 µM.

The compound `NC(C(=O)Nc1ccc2[nH]ncc2c1)c1ccc(Cl)cc1` (centres unmarked) [Compound I-50] registered a Ki of 1 to 10 µM. `O=C(Nc1ccc2[nH]ncc2c1)C(NCCc1ccccn1)c1cccc(Cl)c1` (centres unmarked) [Compound I-66] yielded a Ki of 10 to 20 µM. In the case of `NCCC(C(=O)Nc1ccc2[nH]nc(NC(=O)c3cccc(CN4CCCCC4)c3)c2c1)c1ccc(Cl)c(Cl)c1` (centres unmarked) [Compound I-214], the Ki was less than 1 µM. With `CN(C)CCNC(C(=O)Nc1ccc2[nH]ncc2c1)c1cccc(Cl)c1` (centres unmarked) [Compound I-62], the Ki was less than 1 µM. Take `NCCCNC(C(=O)Nc1ccc2[nH]ncc2c1)c1cccc(Cl)c1` (centres unmarked) [Compound I-60]: the Ki was less than 1 µM.

Consider `O=C(Nc1ccc2[nH]ncc2c1)C(NCCNCc1ccccc1)c1cccc(Cl)c1` (centres unmarked) [Compound I-64], for which the inhibition constant (Ki) was less than 1 µM. The compound `NC(C(=O)Nc1ccc2[nH]ncc2c1)c1ccc2ccccc2c1` (centres unmarked) [Compound I-58] displayed a Ki of 1 to 10 µM.

The compound `O=C(Nc1ccc2[nH]ncc2c1)C(NCc1ccccn1)c1cccc(Cl)c1` (centres unmarked) [Compound I-65] had a Ki of 10 to 20 µM. In turn, `COc1ccc(Br)cc1CC(=O)Nc1ccc2[nH]ncc2c1` [Compound I-94] displayed a Ki of 10 to 20 µM. Consider `CNCCNC(C(=O)Nc1ccc2[nH]ncc2c1)c1cccc(Cl)c1` (centres unmarked) [Compound I-61], for which the Ki is less than 1 µM. The same measure, in the same setting: next, `CCN(CC)Cc1cccc(C(=O)Nc2n[nH]c3ccc(NC(=O)C(CCN)c4ccc(Cl)c(Cl)c4)cc23)c1` (centres unmarked) [Compound I-216]: less than 1 µM; `CS(=O)(=O)c1cccc(C(=O)Nc2n[nH]c3ccc(NC(=O)C(CCN)c4ccc(Cl)c(Cl)c4)cc23)c1` (centres unmarked) [Compound I-221]: less than 1 µM; `COC(=O)NCCC(C(=O)Nc1ccc2[nH]ncc2c1)c1ccc(Cl)c(Cl)c1` (centres unmarked) [Compound I-151]: 1 to 10 µM.

For `NCCC(C(=O)Nc1ccc2[nH]nc(-c3cccc(C(F)(F)F)c3)c2c1)c1ccc(Cl)c(Cl)c1` (centres unmarked) [Compound I-224], the Ki was less than 1 µM. As to `O=C(Cc1ccc(Cl)cc1)Nc1ccc2[nH]ncc2c1` [Compound I-5], the Ki lay within 1 to 10 µM. `NCCNC(C(=O)Nc1ccc2[nH]ncc2c1)c1ccc(Oc2ccccc2)c(Cl)c1` (centres unmarked) [Compound I-72] came in with a Ki of 1 to 10 µM. Still for that read-out and setting: the result for `NCCC(C(=O)Nc1ccc2[nH]nc(NC(=O)c3cccc(SC(F)F)c3)c2c1)c1ccc(Cl)c(Cl)c1` (centres unmarked) [Compound I-219] reads less than 1 µM.

The next experiment concerns the target T1, PDK-1 (Homo sapiens, UniProt O15530).
T1 sequence (O15530 1-556): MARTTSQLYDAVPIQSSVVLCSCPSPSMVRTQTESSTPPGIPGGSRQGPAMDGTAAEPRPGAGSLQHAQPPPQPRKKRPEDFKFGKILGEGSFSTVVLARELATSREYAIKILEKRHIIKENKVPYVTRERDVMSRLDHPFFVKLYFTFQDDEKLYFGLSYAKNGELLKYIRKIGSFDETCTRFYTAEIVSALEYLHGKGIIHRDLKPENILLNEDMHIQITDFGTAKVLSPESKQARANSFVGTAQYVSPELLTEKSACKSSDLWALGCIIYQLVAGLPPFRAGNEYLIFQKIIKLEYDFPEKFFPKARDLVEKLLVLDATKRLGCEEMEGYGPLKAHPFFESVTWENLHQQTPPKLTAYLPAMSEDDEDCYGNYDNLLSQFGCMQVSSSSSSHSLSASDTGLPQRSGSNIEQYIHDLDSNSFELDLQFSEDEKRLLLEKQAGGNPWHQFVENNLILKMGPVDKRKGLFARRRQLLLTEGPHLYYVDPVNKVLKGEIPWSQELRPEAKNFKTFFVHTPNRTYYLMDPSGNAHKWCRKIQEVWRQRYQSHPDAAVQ
In words: PDK-1 inhibition assay (radioactive-phosphate incorporation). The experiment is classed as biochemical. The note with it: 40 μM ATP, 65 μM PDKtide, 25 nM PDK-1, 30° C.
For `CNc1n[nH]c2ccc(NC(=O)C(CCN)c3ccccc3OC)cc12` (centres unmarked) [Compound I-1019], the Ki is more than 3 µM. `CC(=O)OC(C(=O)Nc1ccc2[nH]ncc2c1)c1ccccc1` (centres unmarked) [Compound I-1020]: the Ki was more than 3 µM. For `NCCC(C(=O)Nc1ccc2[nH]nc(-c3ccc(Oc4ccccc4)cc3)c2c1)c1ccccc1` (centres unmarked) [Compound I-265], the Ki is less than 1 µM. For the compound `COc1cccc(C(CCN)C(=O)Nc2ccc3[nH]nc(Nc4cccc(C#N)c4)c3c2)c1` (centres unmarked) [Compound I-1031], the Ki is more than 3 µM. On the same count and under the same terms, the result for `COc1cccc(C(CCN)C(=O)Nc2ccc3[nH]nc(Nc4cccc(C(N)=O)c4)c3c2)c1` (centres unmarked) [Compound I-1030] reads more than 3 µM. Same read-out and setting: the result for `Cc1n[nH]c2ccc(NC(=O)C(CCN)c3ccsc3)cc12` (centres unmarked) [Compound I-1035] reads less than 1 µM; that for `NCCC(C(=O)Nc1ccc2[nH]nc(-c3cccc(C(N)=O)c3)c2c1)c1ccccc1` (centres unmarked) [Compound I-248], less than 1 µM. Regarding `CC(C)c1cccc(-c2n[nH]c3ccc(NC(=O)C(CCN)c4ccccc4)cc23)c1` (centres unmarked) [Compound I-229], the Ki was more than 3 µM. For the compound `CC(=O)O[C@@H](C(=O)Nc1ccc2[nH]ncc2c1)c1ccccc1` [Compound I-33], the Ki was more than 3 µM. On the same count and under the same terms, the result for `NCCC(C(=O)Nc1ccc2[nH]nc(-c3cccc(-c4ccccc4)c3)c2c1)c1ccccc1` (centres unmarked) [Compound I-228] reads 1 to 3 µM; that for `NCCC(C(=O)Nc1ccc2[nH]nc(-c3cccc(OC(F)(F)F)c3)c2c1)c1ccccc1` (centres unmarked) [Compound I-239], 1 to 3 µM; that for `O=C(Nc1ccc2[nH]ncc2c1)C(CCNCc1ccccc1)c1ccccc1F` (centres unmarked) [Compound I-1025], more than 3 µM. With `Cc1n[nH]c2ccc(NC(=O)CCC(NCc3ccccc3)c3ccccc3F)cc12` (centres unmarked) [Compound I-1024], the Ki is more than 3 µM. For the compound `NCCC(C(=O)Nc1ccc2[nH]ncc2c1)c1ccccc1F` (centres unmarked) [Compound I-1032], the Ki was less than 1 µM. As to `NCCC(C(=O)Nc1cc(-c2ccccc2Cl)c2[nH]ncc2c1)c1ccc(Cl)c(Cl)c1` (centres unmarked) [Compound I-148], the Ki was more than 3 µM. On the same count and under the same terms, the result for `COc1cccc(C(CCNCc2ccccc2)C(=O)Nc2ccc3[nH]nc(C)c3c2)c1` (centres unmarked) [Compound I-1016] reads more than 3 µM; that for `NCCC(C(=O)Nc1ccc2[nH]nc(C(=O)NCc3ccccc3)c2c1)c1ccccc1` (centres unmarked) [Compound I-1036], 1 to 3 µM.

Turning to `NCCC(C(=O)Nc1ccc2[nH]nc(-c3ccc(C(N)=O)cc3)c2c1)c1ccccc1` (centres unmarked) [Compound I-262], the Ki is less than 1 µM.

As for `NCCC(C(=O)Nc1ccc2[nH]nc(CNC(=O)c3ccccc3)c2c1)c1ccccc1` (centres unmarked) [Compound I-1042], the Ki is more than 3 µM. The same measure, in the same setting: the result for `O=C(CCC(C(=O)N1CCN(Cc2ccccc2)CC1)c1ccccc1)Nc1ccc2[nH]ncc2c1` (centres unmarked) [Compound I-1015] reads more than 3 µM. Turning to `NCCC(C(=O)Nc1ccc2[nH]nc(-c3ccc(F)cc3)c2c1)c1ccccc1` (centres unmarked) [Compound I-1027], the Ki was less than 1 µM.

`Cc1cccc(-c2n[nH]c3ccc(NC(=O)C(CCN)c4ccccc4)cc23)c1` (centres unmarked) [Compound I-238]: the Ki is less than 1 µM. `Cc1n[nH]c2ccc(NC(=O)C(CCN)c3ccco3)cc12` (centres unmarked) [Compound I-1037]: the Ki was more than 3 µM. For `NCCC(C(=O)Nc1ccc2[nH]nc(NC(=O)c3cccs3)c2c1)c1cccnc1` (centres unmarked) [Compound I-272], the Ki is less than 1 µM.
